Marks after values point to notes of the source that are not given here.
Assays:
mouse organs = test: In vivo activity screening in mice: organ mean total flux (p/s) of luciferase activity after injection of F2 LNP pools (Table 6, FIG. 7A-7C); conditions: Mouse 1, dose 0.3 mg/kg, luciferase mRNA
Method in brief: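 C57BL/6J mice given one tail-vein injection of pooled Formulation F2 LNPs carrying firefly luciferase mRNA (0.25-3 mg/kg) in PBS. At 4-6 h, s.c. D-luciferin given; organs imaged ex vivo by IVIS within 10-15 min, after saline cardiac perfusion. Mean total flux (p/s) per organ ROI.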

[1] = Plate-based fluorescence (RiboGreen) assay: nucleic acid cargo content and encapsulation efficiency of LNPs; assay type: physicochemical; conditions: for EE % / mRNA Content: LNP compositions for in vivo mouse study, four formulations (F1-F4) pooled, or pools of four compounds; for EE (%) N/P:3 / EE (%) N/P:6: LNP
Experimental: (§1) Lipids and active ingredients (e.g., RNA, DNA, etc.) were assembled into LNPs using microfluidic mixing. An ethanol phase was prepared by solubilizing ionizable lipids (i.e., lipid compounds), phospholipids (e.g., DSPC), cholesterol, and PEG lipids in ethanol, at predetermined mol % ratios given in Table 2. An aqueous phase was prepared by diluting a nucleic acid cargo (e.g., firefly luciferase mRNA) in an acidified buffer (pH 4.0 citrate buffer, 50 mM). A chip with microfluidic mixing architecture (e.g., toroidal mixer) was used to mix the two phases at predetermined flow rate ratios (e.g., 9 ml/min for the aqueous phase and 3 ml/min for the ethanol phase). Resulting LNPs comprising the lipids and encapsulating the nucleic acid cargo were dialyzed against PBS pH 7.4 for 2 hours at room temperature in a 20 kDa MWCO dialysis membrane. Then, PBS was refreshed to continue dialysis overnight at 2-8 TC. Upon completion of the buffer exchange, LNPs were optionally concentrated using a ultracentrifugal unit with a 10-100 kDa MWCO membrane.
c. Plate-Based Fluorescence (RiboGreen) Assay
Nucleic acid cargos in the LNPs were quantified by RiboGreen assay, against a nucleic acid standard curve. LNPs encapsulating nucleic acid cargo were mixed with 1× Tris-EDTA (TE) and 2% triton in TE, separately, to achieve dilutions required by the assay. Then, the samples were heated at 30° C. and vortexed at 300 rpm. Samples were plated into 96-well plates and RiboGreen reagent was added into each well. Following incubation in the dark, fluorescence was measured from the wells, and plotted against the standard curve. Nucleic acid concentration obtained from the Triton-treated samples were used for total cargo concentration quantification. Only TE diluted sample fluorescence values were used to determine the non-encapsulated (free) cargo, and their ratio was used to determine the encapsulation efficiency (EE %).

[2] = Dynamic light scattering: LNP particle size and PDI; assay type: physicochemical; conditions: for Particle Size (nm) / PDI: LNP compositions for in vivo mouse study; for Particle Size (nm): four formulations (F1-F4) of the lipid compound pooled, or pools of four compounds (sixteen compositions); for PDI: four formulations (F1-F4) pooled, or pools of four compounds; for PDI N/P:3 / Size (nm) N/P:3 / PDI N/P:6 / Size (nm) N/P:6: LNP
Experimental: as §1
d. Dynamic Light Scattering
LNPs were diluted with PBS pH 7.4 to predetermined dilution ranges based on the process step and LNP concentration. Following mixing, the particle size and PDI were measured by a dynamic light scattering instrument.

Row | EE % [1] [%] | mRNA Content [1] [µg/mL] | EE (%) N/P:6 ([1]; Formulation F1, N/P 6) [%] | EE (%) N/P:6 ([1]; Formulation F2, N/P 6) [%] | EE (%) N/P:6 ([1]; Formulation F3, N/P 6) [%] | EE (%) N/P:6 ([1]; Formulation F4, N/P 6) [%] | Particle Size (nm) [2] [nm] | PDI [2] | PDI N/P:6 ([2]; Formulation F1, N/P 6) | Size (nm) N/P:6 ([2]; Formulation F1, N/P 6) [nm] | PDI N/P:6 ([2]; Formulation F2, N/P 6) | Size (nm) N/P:6 ([2]; Formulation F2, N/P 6) [nm] | PDI N/P:6 ([2]; Formulation F3, N/P 6) | Size (nm) N/P:6 ([2]; Formulation F3, N/P 6) [nm] | PDI N/P:6 ([2]; Formulation F4, N/P 6) | Size (nm) N/P:6 ([2]; Formulation F4, N/P 6) [nm] | Compound | Organ Mean Total Flux Femur (mouse organs) | Organ Mean Total Flux Heart (mouse organs) | Organ Mean Total Flux Kidney (mouse organs) | Organ Mean Total Flux Liver (mouse organs) | further results
1 | 99 | 102.4 | 100 | 100 | 100 | 100 | 89.9 | 0.143 | 0.072 | 74 ± 1 | 0.069 | 89 ± 2 | 0.051 | 107 ± 3 | 0.151 | 58 ± 2 | CCCCCCCC/C=C\CCCCCCCC(=O)OCC(COC(=O)CCCCCCC/C=C\CCCCCCCC)(COC(=O)CCCCCCC/C=C\CCCCCCCC)COC(=O)CCC(CCCCCC)OC(=O)NCCN1CCCC1 (stereo not shown) [Compound 1, 2-((oleoyloxy)methyl)-2-(((4-(((2-(pyrrolidin-1-yl)ethyl)carbamoyl)oxy)decanoyl)oxy)methyl)propane-1,3-diyl dioleate] | 0.8 p/s (×10^6) | 0.1 p/s (×10^6) | 0.1 p/s (×10^6) | 17.5 p/s (×10^6) | Organ Mean Total Flux Lung (mouse organs): 0.5 p/s (×10^6); Organ Mean Total Flux Muscle (mouse organs): 0.6 p/s (×10^6); Organ Mean Total Flux Pancreas (mouse organs): 0.2 p/s (×10^6); Organ Mean Total Flux Spleen (mouse organs): 1.7 p/s (×10^6); EE (%) N/P:3 ([1]; Formulation F1, N/P 3): 97%; EE (%) N/P:3 ([1]; Formulation F2, N/P 3): 98%; EE (%) N/P:3 ([1]; Formulation F3, N/P 3): 97%; EE (%) N/P:3 ([1]; Formulation F4, N/P 3): 98%; PDI N/P:3 ([2]; Formulation F1, N/P 3): 0.084; Size (nm) N/P:3 ([2]; Formulation F1, N/P 3): 85 ± 4 nm; PDI N/P:3 ([2]; Formulation F2, N/P 3): 0.052; Size (nm) N/P:3 ([2]; Formulation F2, N/P 3): 99 ± 2 nm; PDI N/P:3 ([2]; Formulation F3, N/P 3): 0.037; Size (nm) N/P:3 ([2]; Formulation F3, N/P 3): 136 ± 3 nm; PDI N/P:3 ([2]; Formulation F4, N/P 3): 0.153; Size (nm) N/P:3 ([2]; Formulation F4, N/P 3): 78 ± 1 nm
2 | 96 | 86 | 98 | 98 | 98 | 97 | 82.3 | 0.11 | 0.16 | 75 ± 8 | 0.04 | 84 ± 1 | 0.04 | 91 ± 0 | 0.18 | 65 ± 2 | CCCCC/C=C\C/C=C\CCCCCCCC(=O)OCC(COC(=O)CCCCCCC/C=C\C/C=C\CCCCC)(COC(=O)CCCCCCC/C=C\C/C=C\CCCCC)COC(=O)CCC(CCCCCC)OC(=O)NCCN1CCCC1 (stereo not shown) [Compound 2, 2-((((9Z,12Z)-octadeca-9,12-dienoyl)oxy)methyl)-2-(((4-(((2-(pyrrolidin-1-yl)ethyl)carbamoyl)oxy)decanoyl)oxy)methyl)propane-1,3-diyl (9Z,9′Z,12Z,12′Z)-bis(octadeca-9,12-dienoate)] | 0.8 p/s (×10^6) | 0.2 p/s (×10^6) | 0.7 p/s (×10^6) | 99.8 p/s (×10^6) | Organ Mean Total Flux Lung (mouse organs): 2.6 p/s (×10^6); Organ Mean Total Flux Muscle (mouse organs): 0.5 p/s (×10^6); Organ Mean Total Flux Pancreas (mouse organs): 0.2 p/s (×10^6); Organ Mean Total Flux Spleen (mouse organs): 15.6 p/s (×10^6)
3 | 96 | 83 | 98 | 99 | 98 | 98 | 89.1 | 0.08 | 0.09 | 74 ± 1 | 0.01 | 92 ± 1 | 0.07 | 102 ± 1 | 0.14 | 73 ± 1 | CCCCCCCC/C=C\CCCCCCCC(=O)OCC(COC(=O)CCCCCCC/C=C\CCCCCCCC)(COC(=O)CCC(CCCCCC)OC(=O)NCCN1CCCC1)COC(=O)CC12CC3CC(CC(C3)C1)C2 (stereo not shown) [Compound 3, [2-[[2-(1-adamantyl)acetyl]oxymethyl]-2-[[(Z)-octadec-9-enoyl]oxymethyl]-3-[4-(2-pyrrolidin-1ylethylcarbamoyloxy)decanoyloxy]propyl](Z)-octadec-9-enoate] | 1.3 p/s (×10^6) | 0.1 p/s (×10^6) | 0.1 p/s (×10^6) | 29.1 p/s (×10^6) | Organ Mean Total Flux Lung (mouse organs): 0.7 p/s (×10^6); Organ Mean Total Flux Muscle (mouse organs): 0.5 p/s (×10^6); Organ Mean Total Flux Pancreas (mouse organs): 0.2 p/s (×10^6); Organ Mean Total Flux Spleen (mouse organs): 1.4 p/s (×10^6)

Row | Compound | EE % [1] [%] | mRNA Content [1] [µg/mL] | EE (%) N/P:6 ([1]; Formulation F1, N/P 6) [%] | EE (%) N/P:6 ([1]; Formulation F2, N/P 6) [%] | EE (%) N/P:6 ([1]; Formulation F3, N/P 6) [%] | EE (%) N/P:6 ([1]; Formulation F4, N/P 6) [%] | Particle Size (nm) [2] [nm] | PDI [2] | PDI N/P:6 ([2]; Formulation F1, N/P 6) | Size (nm) N/P:6 ([2]; Formulation F1, N/P 6) [nm] | PDI N/P:6 ([2]; Formulation F2, N/P 6) | Size (nm) N/P:6 ([2]; Formulation F2, N/P 6) [nm] | PDI N/P:6 ([2]; Formulation F3, N/P 6) | Size (nm) N/P:6 ([2]; Formulation F3, N/P 6) [nm] | PDI N/P:6 ([2]; Formulation F4, N/P 6) | Size (nm) N/P:6 ([2]; Formulation F4, N/P 6) [nm] | Organ Mean Total Flux Femur (mouse organs) | Organ Mean Total Flux Heart (mouse organs) | Organ Mean Total Flux Kidney (mouse organs) | Organ Mean Total Flux Liver (mouse organs) | further results
4 | CCCCCCCC/C=C\CCCCCCCC(=O)OCC(COC(=O)CCCCCCC/C=C\CCCCCCCC)(COC(=O)CCC(CCCCCC)OC(=O)NCCN1CCCC1)COC(=O)CCC(OCCCCCCCC)OCCCCCCCC (stereo not shown) [Compound 4, [2-(4,4-dioctoxybutanoyloxymethyl)-2-[[(Z)-octadec-9-enoyl]oxymethyl]-3-[4-(2-pyrrolidin-1-ylethylcarbamoyloxy)decanoyloxy]propyl](Z)-octadec-9-enoate] | 99 | 99.1 | 100 | 100 | 100 | 100 | 93.4 | 0.022 | 0.063 | 78 ± 2 | 0.069 | 93 ± 1 | 0.08 | 108 ± 2 | 0.12 | 73 ± 2 | 15.6 p/s (×10^6) | 4.4 p/s (×10^6) | 0.8 p/s (×10^6) | 105.0 p/s (×10^6) | Organ Mean Total Flux Lung (mouse organs): 39.9 p/s (×10^6); Organ Mean Total Flux Muscle (mouse organs): 18.4 p/s (×10^6); Organ Mean Total Flux Pancreas (mouse organs): 5.0 p/s (×10^6); Organ Mean Total Flux Spleen (mouse organs): 17.6 p/s (×10^6); EE (%) N/P:3 ([1]; Formulation F1, N/P 3): 98%; EE (%) N/P:3 ([1]; Formulation F2, N/P 3): 98%; EE (%) N/P:3 ([1]; Formulation F3, N/P 3): 94%; EE (%) N/P:3 ([1]; Formulation F4, N/P 3): 98%; PDI N/P:3 ([2]; Formulation F1, N/P 3): 0.092; Size (nm) N/P:3 ([2]; Formulation F1, N/P 3): 86 ± 10 nm; PDI N/P:3 ([2]; Formulation F2, N/P 3): 0.041; Size (nm) N/P:3 ([2]; Formulation F2, N/P 3): 97 ± 1 nm; PDI N/P:3 ([2]; Formulation F3, N/P 3): 0.089; Size (nm) N/P:3 ([2]; Formulation F3, N/P 3): 116 ± 6 nm; PDI N/P:3 ([2]; Formulation F4, N/P 3): 0.068; Size (nm) N/P:3 ([2]; Formulation F4, N/P 3): 73 ± 0 nm
5 | CCCCCCCCOC(CCC(=O)OCC(COC(=O)CCCCCCOC(=O)C(CCCC)CCCCCC)(COC(=O)CCC(CCCCCC)OC(=O)NCCN1CCCC1)COC(=O)CCC(OCCCCCCCC)OCCCCCCCC)OCCCCCCCC (stereo not shown) [Compound 20, [7-[2,2-bis(4,4-dioctoxybutanoyloxymethyl)-3-[4-(2-pyrrolidin-1-ylethylcarbamoyloxy)decanoyloxy]propoxy]-7-oxo-heptyl]2-butyloctanoate] | 97 | 98 | 100 | 100 | 100 | 100 | 79 | 0.02 | 0.06 | 64 ± 1 | 0.03 | 76 ± 1 | 0.03 | 91 ± 2 | 0.05 | 61 ± 1 | – | – | – | – | –

Source: patent US20260234115A1, “LIPID COMPOUNDS, COMPOSITIONS, AND USES THEREOF” (Liberate Bio, Inc., priority 2023, published 2026)
